Data reported in patent publication US10645928B2, “Pesticidally active polycyclic derivatives with sulfur containing substituents” (Syngenta Participations AG, priority 2014, dated 2020).

How the values were obtained:
Type in all cases: in vivo
[1] = tested on: Frankliniella occidentalis (Western Flower Thrips); test: Example B7: Frankliniella occidentalis, sprayed sunflower leaf discs, mortality; conditions: foliar, 168 h, application rate of 200 ppm, population of mixed ages, 7 days after infestation
Method: Sunflower leaf discs were placed on agar in 24-well microtiter plates and sprayed with aqueous test solutions prepared from 10,000 DMSO stock solutions. After drying the leaf discs were infested with a Frankliniella population of mixed ages. The samples were assessed for mortality 7 days after infestation.

[2] = tested on: Spodoptera littoralis (Egyptian Cotton Leaf Worm); test: Example B17: Spodoptera littoralis, sprayed cotton leaf discs, mortality, anti-feeding effect and growth inhibition; conditions: foliar, 72 h, application rate of 200 ppm, L1 larvae, 3 days after infestation, read-out: control (at least one of mortality, anti-feedant effect, growth inhibition)
Method: (§1) Cotton leaf discs were placed onto agar in 24-well microtiter plates and sprayed with aqueous test solutions prepared from 10,000 ppm DMSO stock solutions. After drying the leaf discs were infested with five L1 larvae. The samples were assessed for mortality, anti-feeding effect, and growth inhibition in comparison to untreated samples 3 days after infestation. Control of Spodoptera littoralis by a test sample is given when at least one of the categories mortality, anti-feedant effect, and growth inhibition is higher than the untreated sample.

[3] = tested on: Euschistus heros (Neotropical Brown Stink Bug); test: Example B6: Euschistus heros, sprayed soybean leaves, mortality and growth inhibition; conditions: 120 h, application rate of 200 ppm, N2 nymphs, 5 days after infestation, read-out: effect in at least one of the two categories (mortality or growth inhibition)
Method: Soybean leaves on agar in 24-well microtiter plates were sprayed with aqueous test solutions prepared from 10,000 ppm DMSO stock solutions. After drying the leaves were infested with N2 nymphs. The samples were assessed for mortality and growth inhibition in comparison to untreated samples 5 days after infestation.

[4] = tested on: Euschistus heros (Neotropical Brown Stink Bug); test: Example B5: Euschistus heros, sprayed soybean leaves, mortality; conditions: 120 h, application rate of 200 ppm, N2 nymphs, 5 days after infestation
Method: Soybean leaves on agar in 24-well microtiter plates were sprayed with aqueous test solutions prepared from 10,000 ppm DMSO stock solutions. After drying the leaves were infested with N2 nymphs. The samples were assessed for mortality 5 days after infestation.

[5] = tested on: Spodoptera littoralis (Egyptian Cotton Leaf Worm); test: Example B19: Spodoptera littoralis, compound in agar absorbed by lettuce roots, anti-feedant effect; conditions: 144 h, test rate of 12.5 ppm, uptake by lettuce roots, Spodoptera eggs, 6 days after infestation, read-out: anti-feeding
Excerpt: (§2) Test compounds were applied by pipette prepared from 10,000 ppm DMSO stock solutions into 24-well plates and mixed with agar. Lettuce seeds were placed onto the agar and the multi well plate was closed by another plate which contained also agar. After 7 days the compound was absorbed by the roots and the lettuce grew into the lid plate. The lettuce leaves were then cut off into the lid plate. Spodoptera eggs were pipetted through a plastic stencil onto a humid gel blotting paper and the lid plate was closed with it. The samples were assessed for anti-feedant effect in comparison to untreated samples 6 days after infestation.

[6] = tested on: Spodoptera littoralis (Egyptian Cotton Leaf Worm); test: Example B16: Spodoptera littoralis, sprayed cotton leaf discs, mortality; conditions: foliar, 72 h, application rate of 200 ppm, L1 larvae, 3 days after infestation
Method: Cotton leaf discs were placed onto agar in 24-well microtiter plates and sprayed with aqueous test solutions prepared from 10,000 ppm DMSO stock solutions. After drying the leaf discs were infested with five L1 larvae. The samples were assessed for mortality 3 days after infestation.

[7] = tested on: Diabrotica balteata (Corn Root Worm); test: Example B2: Diabrotica balteata, sprayed maize sprouts, mortality and growth inhibition; conditions: 96 h, application rate of 200 ppm, L2 larvae, 4 days after infestation, read-out: effect in at least one of the two categories (mortality or growth inhibition)
Method: (§3) Maize sprouts placed onto an agar layer in 24-well microtiter plates were treated with aqueous test solutions prepared from 10,000 ppm DMSO stock solutions by spraying. After drying, the plates were infested with L2 larvae (6 to 10 per well). The samples were assessed for mortality and growth inhibition in comparison to untreated samples 4 days after infestation.

[8] = tested on: Myzus persicae (Green Peach Aphid); test: Example B8: Myzus persicae, sprayed sunflower leaf discs, mortality; conditions: foliar, 144 h, application rate of 200 ppm, leaf disc spray, aphid population of mixed ages, 6 days after infestation
Method: Sunflower leaf discs were placed onto agar in a 24-well microtiter plate and sprayed with aqueous test solutions prepared from 10,000 ppm DMSO stock solutions. After drying, the leaf discs were infested with an aphid population of mixed ages. The samples were assessed for mortality 6 days after infestation.

[9] = tested on: Plutella xylostella (Diamond Back Moth); test: Example B13: Plutella xylostella, treated artificial diet, mortality and growth inhibition; conditions: 120 h, application rate of 200 ppm, L2 larvae, 5 days after infestation, read-out: effect in at least one of the two categories (mortality or growth inhibition)
Method: (§4) 24-well microtiter plates with artificial diet were treated with aqueous test solutions prepared from 10,000 ppm DMSO stock solutions by pipetting. After drying, the plates were infested with L2 larvae (10 to 15 per well). The samples were assessed for mortality and growth inhibition in comparison to untreated samples 5 days after infestation.

[10] = tested on: Diabrotica balteata (Corn Root Worm); test: Example B3: Diabrotica balteata, sprayed maize sprouts, mortality; conditions: 96 h, application rate of 200 ppm, L2 larvae, 4 days after infestation
Method: as §3, with “mortality” for “mortality and growth inhibition in comparison to untreated samples”

[11] = tested on: Plutella xylostella (Diamond Back Moth); test: Example B12: Plutella xylostella, treated artificial diet, mortality; conditions: 120 h, application rate of 200 ppm, L2 larvae, 5 days after infestation
Method: 24-well microtiter plates with artificial diet were treated with aqueous test solutions prepared from 10,000 ppm DMSO stock solutions by pipetting. After drying, the plates were infested with L2 larvae (10 to 15 per well). The samples were assessed for mortality 5 days after infestation.

[12] = tested on: Spodoptera littoralis (Egyptian Cotton Leaf Worm); test: Example B14: Spodoptera littoralis, sprayed cotton leaf discs, anti-feeding effect; conditions: foliar, 72 h, application rate of 200 ppm, L1 larvae, 3 days after infestation
Method: as §1, with “for” for “for mortality,”, “effect” for “effect, and growth inhibition”, “when” for “when at least one of”, “the” for “the categories mortality,”

[13] = tested on: Spodoptera littoralis (Egyptian Cotton Leaf Worm); test: Example B20: Spodoptera littoralis, compound in agar absorbed by lettuce roots, mortality; conditions: 144 h, test rate of 12.5 ppm, uptake by lettuce roots, Spodoptera eggs, 6 days after infestation
Excerpt: Test compounds were applied by pipette prepared from 10,000 ppm DMSO stock solutions into 24-well plates and mixed with agar. Lettuce seeds were placed onto the agar and the multi well plate was closed by another plate which contained also agar. After 7 days the compound was absorbed by the roots and the lettuce grew into the lid plate. The lettuce leaves were then cut off into the lid plate.
Spodoptera eggs were pipetted through a plastic stencil onto a humid gel blotting paper and the lid plate was closed with it. The samples were assessed for mortality 6 days after infestation.

[14] = tested on: Spodoptera littoralis (Egyptian Cotton Leaf Worm); test: Example B18: Spodoptera littoralis, compound in agar absorbed by lettuce roots, mortality, anti-feedant effect and growth inhibition; conditions: 144 h, test rate of 12.5 ppm, uptake by lettuce roots, Spodoptera eggs, 6 days after infestation, read-out: effect in at least one of the three categories (mortality, anti-feeding, or growth inhibition)
Excerpt: as §2, with “pipette” for “pipette prepared”, “for mortality,” for “for”, “effect and growth inhibition” for “effect”

[15] = tested on: Aedes aegypti (Yellow Fever Mosquito); test: Example B23: Aedes aegypti, dry deposits in 12 well tissue culture plates, control; conditions: application rate of 200 ppm in ethanol, adult females, after 48 h and/or 24 h
Method: Test solutions, at an application rate of 200 ppm in ethanol, were applied to 12 well tissue culture plates. Once the deposits were dry, five, two to five day old adult female Aedes aegypti were added to each well, and sustained with a 10% sucrose solution in a cotton wool plug. Assessment of knockdown was made one hour after introduction, and mortality was assessed at 24 and 48 hours after introduction.

[16] = tested on: Plutella xylostella (Diamond Back Moth); test: Example B10: Plutella xylostella, treated artificial diet, growth inhibition; conditions: 120 h, application rate of 200 ppm, L2 larvae, 5 days after infestation
Method: as §4, with “for” for “for mortality and”, “infestation. Control of Plutella xylostella by a test sample is given when the growth inhibition is higher than the untreated sample.” for “infestation.”

CCS(=O)(=O)c1cc(-c2ccc(F)cc2F)cnc1-c1cn2cnc(C(F)(F)F)cc2n1 [Compound P11]
≥ 80%: mortality at 200 ppm [1] | percent control (mortality, anti-feedant effect or growth inhibition) at 200 ppm [2] | percent effect (mortality or growth inhibition) at 200 ppm [3] | mortality at 200 ppm [4] | pest or weed control at 12.5 ppm [5] | mortality at 200 ppm [6] | percent effect (mortality or growth inhibition) at 200 ppm [7] | mortality at 200 ppm [8] | percent effect (mortality or growth inhibition) at 200 ppm [9] | mortality at 200 ppm [10] | mortality at 200 ppm [11] | pest or weed control at 200 ppm [12] | mortality at 12.5 ppm [13] | percent effect (mortality, anti-feeding or growth inhibition) at 12.5 ppm [14]

CCS(=O)(=O)c1cc(-c2ccc(C(F)(F)F)cc2)ccc1-c1cn2cnc(C(F)(F)F)cc2n1 [Compound P2, 2-[2-ethylsulfonyl-4-[4-(trifluoromethyl)phenyl]phenyl]-7-(trifluoromethyl)imidazo[1,2-c]pyrimidine]
≥ 80%: percent control (mortality, anti-feedant effect or growth inhibition) at 200 ppm [2] | mortality at 200 ppm [6] | percent effect (mortality or growth inhibition) at 200 ppm [7] | pest or weed control at 200 ppm [15] | percent effect (mortality or growth inhibition) at 200 ppm [9] | mortality at 200 ppm [10] | mortality at 200 ppm [11] | pest or weed control at 200 ppm [12]

CCS(=O)(=O)c1cc(-c2ccc(C(F)(F)F)cc2)cnc1-c1cn2cnc(C(F)(F)F)cc2n1 [Compound P6, 2-[3-ethylsulfonyl-5-[4-(trifluoromethyl)phenyl]-2-pyridyl]-7-(trifluoromethyl)imidazo[1,2-c]pyrimidine]
≥ 80%: percent control (mortality, anti-feedant effect or growth inhibition) at 200 ppm [2] | percent effect (mortality or growth inhibition) at 200 ppm [3] | mortality at 200 ppm [4] | pest or weed control at 12.5 ppm [5] | mortality at 200 ppm [6] | percent effect (mortality or growth inhibition) at 200 ppm [7] | pest or weed control at 200 ppm [15] | percent effect (mortality or growth inhibition) at 200 ppm [9] | mortality at 200 ppm [10] | mortality at 200 ppm [11] | pest or weed control at 200 ppm [12] | mortality at 12.5 ppm [13] | percent effect (mortality, anti-feeding or growth inhibition) at 12.5 ppm [14]

CCS(=O)(=O)c1cc(-c2ccc(OC(F)(F)F)cc2)cnc1-c1cn2cnc(C(F)(F)F)cc2n1 [Compound P12]
≥ 80%: percent control (mortality, anti-feedant effect or growth inhibition) at 200 ppm [2] | percent effect (mortality or growth inhibition) at 200 ppm [3] | mortality at 200 ppm [4] | pest or weed control at 12.5 ppm [5] | mortality at 200 ppm [6] | percent effect (mortality or growth inhibition) at 200 ppm [7] | pest or weed control at 200 ppm [15] | percent effect (mortality or growth inhibition) at 200 ppm [9] | mortality at 200 ppm [10] | mortality at 200 ppm [11] | pest or weed control at 200 ppm [12] | mortality at 12.5 ppm [13] | percent effect (mortality, anti-feeding or growth inhibition) at 12.5 ppm [14]

CCS(=O)(=O)c1cc(-n2ccc(C(F)(F)F)n2)ccc1-c1cn2cnc(C(F)(F)F)cc2n1 [Compound P1, 2-[2-ethylsulfonyl-4-[3-(trifluoromethyl)pyrazol-1-yl]phenyl]-7-(trifluoromethyl)imidazo[1,2-c]pyrimidine]
≥ 80%: percent control (mortality, anti-feedant effect or growth inhibition) at 200 ppm [2] | percent effect (mortality or growth inhibition) at 200 ppm [3] | mortality at 200 ppm [4] | pest or weed control at 12.5 ppm [5] | mortality at 200 ppm [6] | percent effect (mortality or growth inhibition) at 200 ppm [7] | mortality at 200 ppm [8] | pest or weed control at 200 ppm [15] | percent effect (mortality or growth inhibition) at 200 ppm [9] | mortality at 200 ppm [10] | mortality at 200 ppm [11] | pest or weed control at 200 ppm [12] | mortality at 12.5 ppm [13] | inhibition at 200 ppm [16] | percent effect (mortality, anti-feeding or growth inhibition) at 12.5 ppm [14]

CCS(=O)(=O)c1cc(-c2ccc(Cl)cc2)ccc1-c1cn2cnc(C(F)(F)F)cc2n1 [Compound P3]
≥ 80%: percent control (mortality, anti-feedant effect or growth inhibition) at 200 ppm [2] | mortality at 200 ppm [6] | percent effect (mortality or growth inhibition) at 200 ppm [7] | mortality at 200 ppm [10] | pest or weed control at 200 ppm [12]
